Data published in PubChem BioAssay (NCI).
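48-hour exposure; five concentrations; linearly interpolated endpoints. GI50 marks 50% less growth. TGI marks complete inhibition of growth.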

How the values were obtained:
Assay in all cases: NCI-60 cell line screen, 48 h
SK-MEL-5 melanoma = tested on: SK-MEL-5 melanoma
NCI-H226 lung = tested on: NCI-H226 lung
EKVX NSCLC = tested on: EKVX NSCLC
786-0 renal = tested on: 786-0 renal
ACHN renal = tested on: ACHN renal
SN12C renal = tested on: SN12C renal
UACC-257 melanoma = tested on: UACC-257 melanoma
SNB-19 CNS = tested on: SNB-19 CNS
HCC-2998 colon = tested on: HCC-2998 colon
SK-OV-3 ovarian = tested on: SK-OV-3 ovarian
BT-549 breast = tested on: BT-549 breast
COLO 205 colon = tested on: COLO 205 colon
HL-60(TB) leukemia = tested on: HL-60(TB) leukemia
MDA-MB-231 breast = tested on: MDA-MB-231 breast
OVCAR-4 ovarian = tested on: OVCAR-4 ovarian
OVCAR-8 ovarian = tested on: OVCAR-8 ovarian
NCI-H23 lung = tested on: NCI-H23 lung
OVCAR-5 ovarian = tested on: OVCAR-5 ovarian
SF-268 CNS = tested on: SF-268 CNS
MOLT-4 leukemia = tested on: MOLT-4 leukemia
UACC-62 melanoma = tested on: UACC-62 melanoma
RXF 393 renal = tested on: RXF 393 renal
SNB-75 CNS = tested on: SNB-75 CNS
HOP-62 NSCLC = tested on: HOP-62 NSCLC
A549 NSCLC = tested on: A549 NSCLC
T-47D breast = tested on: T-47D breast
CCRF-CEM leukemia = tested on: CCRF-CEM leukemia
NCI-H460 lung = tested on: NCI-H460 lung
RPMI-8226 leukemia = tested on: RPMI-8226 leukemia
SR leukemia = tested on: SR leukemia
A498 renal = tested on: A498 renal
MDA-MB-435 = tested on: MDA-MB-435
K-562 leukemia = tested on: K-562 leukemia
HOP-92 NSCLC = tested on: HOP-92 NSCLC
MALME-3M melanoma = tested on: MALME-3M melanoma
U251 CNS = tested on: U251 CNS
NCI/ADR-RES ovarian = tested on: NCI/ADR-RES ovarian
MCF7 breast = tested on: MCF7 breast
CAKI-1 renal = tested on: CAKI-1 renal
OVCAR-3 ovarian = tested on: OVCAR-3 ovarian
NCI-H522 lung = tested on: NCI-H522 lung
IGROV1 ovarian = tested on: IGROV1 ovarian
LOX IMVI melanoma = tested on: LOX IMVI melanoma
HCT-116 colon = tested on: HCT-116 colon
HT29 colon = tested on: HT29 colon
SK-MEL-2 melanoma = tested on: SK-MEL-2 melanoma
SW-620 colon = tested on: SW-620 colon
KM12 colon = tested on: KM12 colon
DU-145 prostate = tested on: DU-145 prostate
SK-MEL-28 melanoma = tested on: SK-MEL-28 melanoma
TK-10 renal = tested on: TK-10 renal
SF-539 CNS = tested on: SF-539 CNS
HS 578T breast = tested on: HS 578T breast
HCT-15 colon = tested on: HCT-15 colon
SF-295 CNS = tested on: SF-295 CNS
UO-31 renal = tested on: UO-31 renal

Clc1ccc(-c2cc(-c3ccccc3)nc(NCCNc3ccnc4cc(Cl)ccc34)n2)cc1
GI50 (SK-MEL-5 melanoma): 1740 nM | TGI (SK-MEL-5 melanoma): 3200 nM | GI50 (NCI-H226 lung): 1570 nM | TGI (NCI-H226 lung): 3680 nM | GI50 (EKVX NSCLC): 1600 nM | TGI (EKVX NSCLC): 3340 nM | GI50 (786-0 renal): 1670 nM | TGI (786-0 renal): 3410 nM | GI50 (ACHN renal): 1720 nM | TGI (ACHN renal): 3240 nM | GI50 (SN12C renal): 1740 nM | TGI (SN12C renal): 3280 nM | GI50 (UACC-257 melanoma): 2000 nM | TGI (UACC-257 melanoma): 4090 nM | GI50 (SNB-19 CNS): 1720 nM | TGI (SNB-19 CNS): 3590 nM | GI50 (HCC-2998 colon): 1850 nM | TGI (HCC-2998 colon): 3560 nM | GI50 (SK-OV-3 ovarian): 1710 nM | TGI (SK-OV-3 ovarian): 3290 nM | GI50 (BT-549 breast): 1680 nM | TGI (BT-549 breast): 3250 nM | GI50 (COLO 205 colon): 1680 nM | TGI (COLO 205 colon): 3660 nM | GI50 (HL-60(TB) leukemia): 1850 nM | TGI (HL-60(TB) leukemia): 3760 nM | GI50 (MDA-MB-231 breast): 1880 nM | TGI (MDA-MB-231 breast): 3570 nM | GI50 (OVCAR-4 ovarian): 1790 nM | TGI (OVCAR-4 ovarian): 3830 nM | GI50 (OVCAR-8 ovarian): 1910 nM | TGI (OVCAR-8 ovarian): 4100 nM | GI50 (NCI-H23 lung): 1760 nM | TGI (NCI-H23 lung): 3600 nM | GI50 (OVCAR-5 ovarian): 1670 nM | TGI (OVCAR-5 ovarian): 3060 nM | GI50 (SF-268 CNS): 1810 nM | TGI (SF-268 CNS): 3800 nM | GI50 (MOLT-4 leukemia): 1890 nM | TGI (MOLT-4 leukemia): 4190 nM | GI50 (UACC-62 melanoma): 1840 nM | TGI (UACC-62 melanoma): 3370 nM | GI50 (RXF 393 renal): 1190 nM | TGI (RXF 393 renal): 2800 nM | GI50 (SNB-75 CNS): 1580 nM | TGI (SNB-75 CNS): 3080 nM | GI50 (HOP-62 NSCLC): 1680 nM | TGI (HOP-62 NSCLC): 3480 nM | GI50 (A549 NSCLC): 1710 nM | TGI (A549 NSCLC): 3450 nM | GI50 (T-47D breast): 1540 nM | TGI (T-47D breast): 3450 nM | GI50 (CCRF-CEM leukemia): 2140 nM | TGI (CCRF-CEM leukemia): 5560 nM | GI50 (NCI-H460 lung): 1950 nM | TGI (NCI-H460 lung): 3850 nM | GI50 (RPMI-8226 leukemia): 2030 nM | TGI (RPMI-8226 leukemia): 4540 nM | GI50 (SR leukemia): 1590 nM | TGI (SR leukemia): 4560 nM | GI50 (A498 renal): 1640 nM | TGI (A498 renal): 3310 nM | GI50 (MDA-MB-435): 1770 nM | TGI (MDA-MB-435): 3270 nM | GI50 (K-562 leukemia): 1620 nM | TGI (K-562 leukemia): 3530 nM | GI50 (HOP-92 NSCLC): 1320 nM | TGI (HOP-92 NSCLC): 2800 nM | GI50 (MALME-3M melanoma): 1710 nM | TGI (MALME-3M melanoma): 3300 nM | GI50 (U251 CNS): 1720 nM | TGI (U251 CNS): 3370 nM | GI50 (NCI/ADR-RES ovarian): 1660 nM | TGI (NCI/ADR-RES ovarian): 3400 nM | GI50 (MCF7 breast): 1720 nM | TGI (MCF7 breast): 3730 nM | GI50 (CAKI-1 renal): 1470 nM | TGI (CAKI-1 renal): 2930 nM | GI50 (OVCAR-3 ovarian): 1770 nM | TGI (OVCAR-3 ovarian): 3360 nM | GI50 (NCI-H522 lung): 1810 nM | TGI (NCI-H522 lung): 3780 nM | GI50 (IGROV1 ovarian): 1600 nM | TGI (IGROV1 ovarian): 3270 nM | GI50 (LOX IMVI melanoma): 1890 nM | TGI (LOX IMVI melanoma): 3700 nM | GI50 (HCT-116 colon): 1650 nM | TGI (HCT-116 colon): 3410 nM | GI50 (HT29 colon): 1670 nM | TGI (HT29 colon): 3260 nM | GI50 (SK-MEL-2 melanoma): 1730 nM | TGI (SK-MEL-2 melanoma): 3230 nM | GI50 (SW-620 colon): 1700 nM | TGI (SW-620 colon): 3480 nM | GI50 (KM12 colon): 1810 nM | TGI (KM12 colon): 3460 nM | GI50 (DU-145 prostate): 1820 nM | TGI (DU-145 prostate): 3310 nM | GI50 (SK-MEL-28 melanoma): 1700 nM | TGI (SK-MEL-28 melanoma): 3190 nM | GI50 (TK-10 renal): 1800 nM | TGI (TK-10 renal): 3420 nM | GI50 (SF-539 CNS): 1720 nM | TGI (SF-539 CNS): 3340 nM | GI50 (HS 578T breast): 1880 nM | TGI (HS 578T breast): 4190 nM | GI50 (HCT-15 colon): 1630 nM | TGI (HCT-15 colon): 3250 nM | GI50 (SF-295 CNS): 1800 nM | TGI (SF-295 CNS): 3520 nM | GI50 (UO-31 renal): 1380 nM | TGI (UO-31 renal): 2860 nM
